Among the data in US20250084041A1, “ANTIMICROBIAL COMPOUNDS AND METHODS” (Curza Global, LLC, priority 2021, published 2025) are MIC and IC50 values, retold here.

In one assay the test system is S. aureus (Sa). In words: Broth microdilution MIC, S. aureus. The class given is cell-based. Particulars: Staphylococcus aureus, read-out: Sa + bicarb 25 (MIC). An outline of the steps: (§1)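 Inoculum 5×10^4 CFU/well; media CAMHB ± 25 mM NaHCO3 or ± 0-50% heat-inactivated human serum; 2-fold series, 8 concentrations, triplicate; modified CLSI M07-A9 MIC.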
In general terms: In broth dilution the organism is exposed to a series of concentrations in liquid medium.

A further assay has as its system E. coli (Ec). In words: Broth microdilution MIC, E. coli. The following applies: Escherichia coli, read-out: E. coli + bicarb 25 (MIC). The class given is cell-based. An outline of the steps: as §1
In the next assay the test system is P. aeruginosa (Pa). In words: Broth microdilution MIC, P. aeruginosa. Particulars: Pseudomonas aeruginosa, read-out: Pa + bicarb 25 (MIC). The assay is classed as cell-based. The procedure, abridged: as §1
For another assay, the system named is A. baumannii (Ab). Put plainly: Broth microdilution MIC, A. baumannii. The class given is cell-based. The following applies: Acinetobacter baumannii, read-out: Ab + bicarb 25 (MIC). The procedure, abridged: as §1
The test system of a further assay is E. faecalis (Ef). In words: Broth microdilution MIC, E. faecalis. The following applies: Enterococcus faecalis, read-out: Ef + bicarb 25 (MIC). The assay is classed as cell-based. An outline of the steps:
as §1

Another assay deals with E. coli S30 extract. In words: E. coli S30 extract: inhibition of bacterial protein synthesis (luciferase). The class given is biochemical. The following applies: 37° C. 1 hour. The procedure, abridged: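 Coupled transcription-translation in E. coli S30 extract, programmed with pBESTluc plasmid, was run with 8-point 2-fold compound dilutions for 1 h at 37 °C. After a cold stop, luciferase luminescence was read and percent inhibition calculated against no-inhibitor controls.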

Assay [1] has as its target Rabbit Reticulocyte Lysate. In words: Rabbit Reticulocyte Lysate: inhibition of eukaryotic protein synthesis (luciferase). The assay is classed as biochemical. The following applies: 30° C. 90 minutes, read-out: Retic. IC50. The procedure, abridged:
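Nuclease-treated rabbit reticulocyte lysate translating luciferase control RNA with complete amino acids; compounds in 8-point 2-fold dilutions, 90 min at 30° C. Luminescence read after luciferase reagent; % inhibition versus water (no-inhibitor) control, no-RNA wells as background.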

Each structure is given as a SMILES string. pIC50: −log10 of the molar value. Where a name gives a salt, the structure may show the parent alone.

In the case of `CC(C)(N)C(=O)N1CCN(C(=O)Nc2ccn([C@H]3CC[C@H](CN[C@H]4CC[C@@H](N)CC4)CC3)c(=O)n2)CC1` [Compound 17, 4-(2-Amino-2-methylpropanoyl)-N-(1-(trans-4-(((cis-4-aminocyclohexyl)amino)methyl)cyclohexyl)-2-oxo-1,2-dihydropyrimidin-4-yl)piperazine-1-carboxamide hydrochloride salt], the MIC was under 8 µg/mL in the assay on S. aureus (Sa); under 8 µg/mL in the assay on E. coli (Ec); over 32 µg/mL with P. aeruginosa (Pa); over 32 µg/mL with A. baumannii (Ab); under 8 µg/mL in the assay with E. faecalis (Ef). Further, the pIC50 in the assay with E. coli S30 extract was over 6.30; in assay [1], at most 6.00.
For `CC(C)(N)C(=O)N1CCN(C(=O)Nc2ccn([C@H]3CC[C@H](CN[C@H]4CC[C@H](N)CC4)CC3)c(=O)n2)CC1` [Compound 18, 4-(2-Amino-2-methylpropanoyl)-N-(1-(trans-4-(((trans-4-aminocyclohexyl)amino)methyl)cyclohexyl)-2-oxo-1,2-dihydropyrimidin-4-yl)piperazine-1-carboxamide hydrochloride salt], the MIC is under 8 µg/mL in the assay on S. aureus (Sa); under 8 µg/mL in the assay with E. coli (Ec); over 32 µg/mL with P. aeruginosa (Pa); over 32 µg/mL in the assay with A. baumannii (Ab); 8 to 32 µg/mL in the assay with E. faecalis (Ef). The pIC50 in the assay with E. coli S30 extract was over 6.30; in assay [1] it was at most 6.00.
As for `CN(C[C@H]1CC[C@H](n2ccc(NC(=O)N3CCN(C(=O)C(C)(C)N)CC3)nc2=O)CC1)[C@H]1CC[C@H](N)CC1` [Compound 19, 4-(2-Amino-2-methylpropanoyl)-N-(1-(trans-4-(((trans-4-aminocyclohexyl)(methyl)amino)methyl)cyclohexyl)-2-oxo-1,2-dihydropyrimidin-4-yl)piperazine-1-carboxamide hydrochloride salt], the MIC in the assay on S. aureus (Sa) was under 8 µg/mL; with E. coli (Ec), under 8 µg/mL; with P. aeruginosa (Pa) it was over 32 µg/mL; in the assay on A. baumannii (Ab), 8 to 32 µg/mL; in the assay on E. faecalis (Ef), under 8 µg/mL. In addition, the values for the pIC50 (in the assay on E. coli S30 extract; in assay [1]) were over 6.30 and at most 6.00, respectively.
In the case of `CC(C)(N)C(=O)N1CCN(C(=O)Nc2ccn([C@H]3CC[C@H](CN4CCC5(CC4)CC(N)C5)CC3)c(=O)n2)CC1` [Compound 20, 4-(2-Amino-2-methylpropanoyl)-N-(1-(trans-4-((2-amino-7-azaspiro[3.5]nonan-7-yl)methyl)cyclohexyl)-2-oxo-1,2-dihydropyrimidin-4-yl)piperazine-1-carboxamide hydrochloride salt], the MIC was under 8 µg/mL in the assay with S. aureus (Sa); under 8 µg/mL with E. coli (Ec); 8 to 32 µg/mL in the assay with P. aeruginosa (Pa); under 8 µg/mL with A. baumannii (Ab); under 8 µg/mL in the assay on E. faecalis (Ef). In addition, the pIC50 in the assay with E. coli S30 extract is over 6.30; in assay [1], at most 6.00.
Consider `CCN(C[C@H]1CC[C@H](n2ccc(NC(=O)N3CCN(C(=O)C(C)(C)N)CC3)nc2=O)CC1)[C@H]1CC[C@H](N)CC1` [Compound 21, 4-(2-Amino-2-methylpropanoyl)-N-(1-(trans-4-(((trans-4-aminocyclohexyl)(ethyl)amino)methyl)cyclohexyl)-2-oxo-1,2-dihydropyrimidin-4-yl)piperazine-1-carboxamide hydrochloride salt], for which the MIC in the assay with S. aureus (Sa) was under 8 µg/mL; with E. coli (Ec) it was under 8 µg/mL; in the assay with P. aeruginosa (Pa) it was 8 to 32 µg/mL; in the assay on A. baumannii (Ab) it was 8 to 32 µg/mL; with E. faecalis (Ef), under 8 µg/mL. For the same compound, the pIC50 in the assay on E. coli S30 extract is over 6.30; in assay [1], at most 6.00.
Consider `CC(C)(N)C(=O)N1CCN(C(=O)Nc2ccn(C3=CCC(CN4CCC5(CC4)CC(N)C5)CC3)c(=O)n2)CC1` (stereo not drawn) [Compound 25, 4-(2-Amino-2-methylpropanoyl)-N-(1-(4-((2-amino-7-azaspiro[3.5]nonan-7-yl)methyl)cyclohexan-1-en-1-yl)-2-oxo-1,2-dihydropyrimidin-4-yl)piperazine-1-carboxamide hydrochloride salt], for which the MIC in the assay with S. aureus (Sa) was under 8 µg/mL; in the assay on E. coli (Ec), under 8 µg/mL; in the assay with P. aeruginosa (Pa), 8 to 32 µg/mL; in the assay with A. baumannii (Ab), under 8 µg/mL; in the assay with E. faecalis (Ef) it was under 8 µg/mL. For the same compound, the pIC50 in the assay on E. coli S30 extract is over 6.30; in assay [1] it was at most 6.00.

Usually MIC stands for the lowest concentration found to suppress growth. The pIC50 is the negative decadic logarithm of the IC50, by convention in mol/L.
